Results taken from US20230399314A1, “CD73 INHIBITOR AND USE THEREOF” (WUHAN HUMANWELL INNOVATIVE DRUG RESEARCH AND DEVELOPMENT …, priority 2020, published 2023).

Molecular target: Human-CD73 enzyme (Homo sapiens (Human), UniProt P21589)
Experiment: In vitro inhibitory activity to recombinant human CD73 enzyme (ATP-GLO)
Assay type: biochemical
Conditions: Human-CD73 0.1 μg/mL, AMP 100 μM
Experimental: Human-CD73 (Novoprotein; C446) was diluted with Tris-MgCl2 buffer to form a stock solution (3×), which was placed in a 96-well plate according to 20 μL/well to obtain a final concentration of 0.1 μg/mL. The compound was diluted with Tris-MgCl2 buffer to form a stock solution (3×) of an appropriate concentration gradient, the compound solution was added to the above 96-well plate according to 20 μL/well and uniformly mixed with the Human-CD73 solution, and the mixture was incubated at the room temperature for 30 min. Meanwhile, a positive reference group (without the compound) and a negative reference group (without CD73) were set. AMP (Sigma; A1752-5G) was diluted with Tris-MgCl2 buffer to form a stock solution (3×), which was added to the above 96-well plate according to 20 μL/well to obtain a final concentration of 100 μM, and the mixture was uniformly mixed and incubated at 37° C. for 60 min; ATP (Sigma; A7699-1G) was diluted with Tris-MgCl2 buffer to form a stock solution (7×), which was added to the above 96-well plate according to 10 μL/well to obtain a final concentration of 100 μM, and the mixture was uniformly mixed, incubated for 5 min, and tested by using an ATP-GLO kit (Promega; G7573).
Human-CD73 inhibition rates of the compound at different concentrations were calculated according to the following formula, the concentration of the compound was taken as the X-axis, the inhibition rate was taken as the Y-axis, and an IC50 value of the compound in inhibiting Human-CD73 was calculated by using Prism software.

Chain of Human-CD73 enzyme (P21589 27-574): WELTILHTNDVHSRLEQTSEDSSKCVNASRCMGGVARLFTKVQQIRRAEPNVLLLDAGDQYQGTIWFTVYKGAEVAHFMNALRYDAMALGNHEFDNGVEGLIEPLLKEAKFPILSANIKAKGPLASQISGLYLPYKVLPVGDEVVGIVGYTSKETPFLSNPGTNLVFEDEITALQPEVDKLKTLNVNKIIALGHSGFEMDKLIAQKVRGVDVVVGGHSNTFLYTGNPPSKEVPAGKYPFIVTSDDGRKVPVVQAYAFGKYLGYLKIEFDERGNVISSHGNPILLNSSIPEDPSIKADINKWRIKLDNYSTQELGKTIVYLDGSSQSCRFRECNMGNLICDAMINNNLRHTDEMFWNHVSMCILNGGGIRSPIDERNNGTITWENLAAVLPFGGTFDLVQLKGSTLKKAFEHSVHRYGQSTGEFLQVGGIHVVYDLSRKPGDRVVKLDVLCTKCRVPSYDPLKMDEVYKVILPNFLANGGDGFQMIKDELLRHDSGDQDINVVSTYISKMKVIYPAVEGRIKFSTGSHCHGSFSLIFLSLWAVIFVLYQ

| SMILES | IC50 |
| --- | --- |
| CC(C)(O)[C@H]1C[C@@H]1c1cc(-c2c[nH]c(=O)[nH]c2=O)nnc1Cl [Compound 5, 5-(6-chloro-5-((1S,2S)-2-(2-hydroxypropan-2-yl)cyclopropyl)pyridazin-3-yl)pyrimidine-2,4(1H,3H)-dione] | 11.6 nM |
| CC(O)[C@H]1C[C@@H]1c1cc(-c2c[nH]c(=O)[nH]c2=O)nnc1Cl (stereo partly drawn) [Compound 6, 5-(6-chloro-5-((1S,2S)-2-(1-hydroxyethyl)cyclopropyl)pyridazin-3-yl)pyrimidine-2,4(1H,3H)-dione] | 24.5 nM |
| O=c1[nH]cc(-c2cc([C@@H]3C[C@H]3CF)c(Cl)nn2)c(=O)[nH]1 [Compound 8, 5-(6-chloro-5-((1R,2R)-2-(fluoromethyl)cyclopropyl)pyridazin-3-yl)pyrimidine-2,4(1H,3H)-dione] | 16.5 nM |
| COC[C@H]1C[C@@H]1c1cc(-c2c[nH]c(=O)[nH]c2=O)nnc1Cl [Compound 12, 5-(6-chloro-5-((1S,2S)-2-(methoxymethyl)cyclopropyl)pyridazin-3-yl)pyrimidine-2,4(1H,3H)-dione] | 15.4 nM |
| O=c1[nH]cc(-c2cc([C@@H]3C[C@H]3CC(F)(F)F)c(Cl)nn2)c(=O)[nH]1 [Compound 13, 5-(6-chloro-5-((1R,2S)-2-(2,2,2-trifluoroethyl)cyclopropyl)pyridazin-3-yl)pyrimidine-2,4(1H,3H)-dione] | 6870 nM |

Next, values leading:

| IC50 | SMILES |
| --- | --- |
| 123 nM | N#Cc1nnc(-c2c[nH]c(=O)[nH]c2=O)cc1[C@H]1C[C@@H]1C(F)(F)F [Compound 15, 6-(2,4-dioxo-1H-pyrimidin-5-yl)-4-((1S,2S)-2-(trifluoromethyl)cyclopropyl)pyridazine-3-carbonitrile] |
| 173 nM | CCOC[C@H]1C[C@@H]1c1cc(-c2c[nH]c(=O)[nH]c2=O)nnc1Cl [Compound 16, 5-(6-chloro-5-((1S,2S)-2-(ethoxymethyl)cyclopropyl)pyridazin-3-yl)-1H-pyrimidine-2,4-dione] |
| 164 nM | CC(C)OC[C@H]1C[C@@H]1c1cc(-c2c[nH]c(=O)[nH]c2=O)nnc1Cl [Compound 17, 5-(6-chloro-5-((1S,2S)-2-(isopropoxymethyl)cyclopropyl)pyridazin-3-yl)-1H-pyrimidine-2,4-dione] |
| 1250 nM | O=c1[nH]cc(-c2cc([C@@H]3C[C@H]3CC(F)F)c(Cl)nn2)c(=O)[nH]1 [Compound 19, 5-(6-chloro-5-((1R,2S)-2-(2,2-difluoroethyl)cyclopropyl)pyridazin-3-yl)pyrimidine-2,4(1H,3H)-dione] |
| 9.55 nM | Cc1nnc(-c2c[nH]c(=O)[nH]c2=O)cc1[C@H]1C[C@@H]1CF [Compound 20, 5-(5-((1S,2S)-2-(fluoromethyl)cyclopropyl)-6-methylpyridazin-3-yl)pyrimidine-2,4(1H,3H)-dione] |
